Reference: patent US20260041744A1, “Methods for Treating Pompe Disease” (Amicus Therapeutics, Inc., priority 2022, published 2026)

How the values were obtained:
[1] = system: Gaa KO mice; assay: Muscle biomarkers LAMP1, LC3, dysferlin in Gaa KO mice (staining, western blot); assay type: in vivo, mouse; details: mouse, in vivo
Description: The therapeutic effects of ATB200 and miglustat were evaluated and compared against those of Alglucosidase alfa in Gaa KO mice. For the study, male Gaa KO (3-to 4-month old) and age-matched wild-type (WT) mice were used. Alglucosidase alfa was administered via bolus tail vein intravenous (IV) injection. In the co-administration regimen, miglustat was administered via oral gavage (PO) 30 minutes prior to the IV injection of ATB200. Treatment was given biweekly. Treated mice were sacrificed after 14 days from the last administration and various tissues were collected for further analysis. Table 11 summarizes the study design:
Tissue samples were also analyzed for biomarker changes following the methods discussed in: Khanna R, et al. (2012), “The pharmacological chaperone AT2220 increases recombinant human acid α-glucosidase uptake and glycogen reduction in a mouse model of Pompe disease,” Plos One 7(7): e40776; and Khanna, R et al. (2014), “The Pharmacological Chaperone AT2220 Increases the Specific Activity and Lysosomal Delivery of Mutant Acid a-Glucosidase, and Promotes Glycogen Reduction in a Transgenic Mouse Model of Pompe Disease,” PLOS ONE 9(7): e102092.
Similarly, intense LC3-positive aggregates in the muscle fibers of untreated Gaa KO mice signify the presence of autophagic zones and autophagy build-up. […] A similar observation was made when the expression of LC3 was assessed using western blot. […] In comparison, the effect of alglucosidase alfa on autophagy was modest.
Dysferlin, a protein involved in membrane repair and whose deficiency/mistrafficking is associated with a number of muscular dystrophies, was also assessed.

[2] = system: LOPD population (PROPEL target population); assay: Multi-level network meta-regression (ML-NMR) indirect treatment comparison, 6MWD and FVC change from baseline at week 52; set-up: species or system human; details: base-case scenario
Description: Using patient-level data from the PROPEL randomized clinical trial (RCT) plus aggregate published data from other RCTs, Phase I/II and open label extension trials, a multi-level network meta-regression was conducted, adjusting for various baseline covariates including previous ERT duration. The base case scenario had covariates resembling the PROPEL population (naïve and ERT-experienced) and analyzed 6MWD and FVC change from baseline at 52 weeks.
An ITC providing relative effect estimates in the target population of interest (ie an LOPD population including a mix of ERT-naïve and ERT-experienced subjects as in the pivotal Phase III trial comparing Cipa+mig with Alglu [PROPEL]) was performed.
A systematic literature review (SLR) was conducted to identify relevant published clinical studies of ERTs in LOPD. Outcomes assessed were change from baseline in 6-minute walking distance (6MWD) (m) and in forced vital capacity (FVC; % predicted) at week 52, acknowledged by clinicians, HTA agencies and payers as key LOPD trial endpoints. Aggregate results on 6MWD and FVC change from baseline over time and baseline characteristics (age, gender, ethnicity, previous ERT duration, baseline 6MWD and baseline FVC) were extracted from included studies.
A multi-level network meta regression (ML-NMR) was performed, which is an extension of standard network meta-analyses (NMAs) that take into account the effect of study-level covariates, and that can be applied to any connected network with any mixture of individual patient-level data (IPD) and aggregate data. ML-NMR is an accepted method by the National Institute for Health and Care Excellence (NICE) in support of cost effectiveness analysis. Single-arm study results were matched to appropriate comparator arms of the comparative studies to allow for inclusion into the network. Mean treatment differences with associated 95% credible intervals (CrIs) were calculated for 6MWD and FVC change from baseline at week 52.
A base-case scenario was evaluated in which all covariates were set to the target population of the PROPEL trial. To study the impact of previous ERT duration on relative effects, ERT duration value was varied, keeping remaining covariate values as in the base-case scenario. A sensitivity analysis was performed by excluding all matched single-arm evidence from the network to assess its impact on the results.
Both fixed effects (FE) and random effects (RE) ML-NMR models were applied and the deviance information criteria (DIC) was used to assess goodness-of-fit of the models and to identify the appropriate model (FE or RE model) for the data. Models were implemented in a Bayesian framework using Stan with help of the R package multinma.
In the base-case scenario, the covariates were set to the baseline characteristics of the target population (ie the PROPEL trial; see Table 20), and time was set to 52 weeks.

[3] = system: adult subjects with LOPD; assay: Study ATB200-07 (OLE): sitting % predicted FVC; assay type: in vivo, human
From the text: The study doses and schedule are maintained from Study ATB200-03.
Efficacy data are presented in this summary as change from the baseline of Study ATB200-03 (OLE-ES Population).

[4] = system: adult subjects with LOPD; assay: Study ATB200-07 (OLE): PROMIS-Fatigue; assay type: in vivo, human
From the text: (§1) Analysis populations presented in this summary are 1) the OLE-ES Population (all subjects who satisfied the eligibility requirements (based on the inclusion and exclusion criteria) and entered Study ATB200-07 and 2) the OLE-FAS Population (all subjects who entered the OLE Study ATB200-07 who had both a valid ATB200-07 baseline and at least 1 post-baseline assessment for at least 1 of the 6 main efficacy endpoints [6MWD, sitting % predicted FVC, MMT-lower extremities, PROMIS-Physical Function, PROMIS-Fatigue, and GSGC]).

[5] = system: adult subjects with LOPD; assay: Study ATB200-07 (OLE): CK
Description: (§2) The Phase III double-blind PROPEL study (NCT03729362; ATB200-03) described in Examples 9 and 10 above compared the investigational two-component therapy cipaglucosidase alfa/miglustat (cipa/mig) with alglucosidase alfa/placebo (alglu) in adults with late-onset Pompe disease (LOPD) over 52 weeks. The ongoing open-label extension (OLE) of PROPEL (NCT04138277; ATB200-07) evaluates long-term safety and efficacy of cipa/mig. Outcomes include 6 minute walk distance (6MWD), forced vital capacity (FVC), creatine kinase (CK) and hexose tetrasaccharide (Hex4) levels and safety. Data are reported as change from the PROPEL baseline to OLE week 52 (104 weeks after the PROPEL baseline).

[6] = system: adult subjects with LOPD; assay: Study ATB200-07 (OLE): Hex4
Description: as §2

[7] = system: adult subjects with LOPD; assay: Study ATB200-07 (OLE): MMT lower extremity
From the text: as §1

[8] = system: adult subjects with Pompe disease; assay: Pooled Studies ATB200-02/03/07 (Pool 2): 6MWD by exposure interval; details: exposure interval ≤15 months
Description: The pooled efficacy analyses presented within this section include the outlier (Pool 2). […] Pooled efficacy analyses excluding the outlier subject (Pool 2A) were also performed.
No long-term data for the alglucosidase alfa/placebo group are available, as all subjects switched to cipaglucosidase alfa/miglustat in Study ATB200-07.
Efficacy data from the 3 adult Pompe disease clinical studies were pooled and analyzed to further support the long-term efficacy of cipaglucosidase alfa/miglustat in adult subjects. Data from non-ambulatory subjects (Study ATB200-02 Cohort 2) were not included in the pool as there was little overlap of efficacy endpoints for this group with the various ambulatory groups, such as 6MWD and lower MMT.
The 3 adult Pompe disease clinical studies were pooled as follows: • The cipaglucosidase alfa/miglustat treatment group consists of: • All ambulatory subjects in Study ATB200-02 (Cohorts 1, 3, and 4), • All subjects randomized to the cipaglucosidase alfa/miglustat treatment group in Study ATB200-03, and • All subjects enrolled in Study ATB200-07. • The alglucosidase alfa/placebo treatment group consists of: • All subjects randomized to the ERT treatment group in Study ATB200-03.

[9] = system: adult subjects with late-onset Pompe disease (LOPD); assay: Study ATB200-03: summary across primary, secondary and biomarker endpoints (incl. SVC, FVC supine, MIP, MEP, SNIP, MMT upper/overall, QMT, TUG); details: ITT excluding outlier subject
From the text: • overall physical wellbeing • effort of breathing • muscle strength • muscle function • ability to move around • activities of daily living • energy level • level of muscular pain • actual value of the subject's functional status (improving, stable, or declining) at Week 52, as measured by the Physician's Global Impression of Change • change from baseline to Week 52 in the following measures of pulmonary function, as follows: • sitting FVC (% predicted) • MIP (cmH2O) • MIP (% predicted) • MEP (cmH2O) • MEP (% predicted) • SNIP (cmH2O)

[10] = ERT-naïve, Study ATB200-03/07, excluding the outlier
[11] = Study ATB200-03 baseline, OLE-ES Population excluding Subject 4005-2511
[12] = change from ATB200-03 baseline at Week 52, OLE-ES excluding Subject 4005-2511
[13] = change from ATB200-03 baseline at Week 104, alglucosidase alfa/placebo group switched to cipaglucosidase alfa/miglustat at Week 52, OLE-ES excluding Subject 4005-2511

Substance: alglucosidase alfa [reference compound]
- LC3 II level / autophagy, western blot [1]: modest
- relative effect, sensitivity analysis (RCT data only), 6MWT and FVC [2]: numerically favourable versus placebo
- % Predicted FVC Baseline Mean [3, 10]: 79.1 % predicted
- % Predicted FVC CFBL M12 (W 52) Mean [3, 10]: −4.0 % predicted
- % Predicted FVC CFBL M24 (W 104) Mean [3, 10]: −3.1 % predicted
- Sitting FVC, mean BSL [3, 11]: 69.5 % predicted
- Sitting FVC, mean 52-wk CFB [3, 12]: −3.6 % predicted
- Sitting FVC, mean 104-wk CFB [3, 13]: −3.6 % predicted
- PROMIS-Fatigue, mean BSL [4, 11]: 21.2
- PROMIS-Fatigue, mean 52-wk CFB ([4]; change from ATB200-03 baseline at Week 52, decrease indicates improvement, OLE-ES excluding Subject 4005-2511): −1.7
- PROMIS-Fatigue, mean 104-wk CFB [4, 13]: −0.1
- CK, mean BSL [5, 11]: 527.4
- CK, mean 52-wk CFB [5, 12]: 41.0
- CK, mean 104-wk CFB [5, 13]: −173.6
- Hex4, mean BSL [6, 11]: 7.0
- Hex4, mean 52-wk CFB [6, 12]: 1.6
- Hex4, mean 104-wk CFB [6, 13]: −2.7
- MMT (lower extremity score), mean BSL [7, 11]: 27.8
- MMT (lower extremity score), mean 52-wk CFB [7, 12]: 0.9
- MMT (lower extremity score), mean 104-wk CFB [7, 13]: 1.1
- 6MWD Baseline, Mean ([8]; Pool 2, Efficacy Population including the outlier): 350.14 meters
- 6MWD Baseline, Median ([8]; Pool 2, including the outlier): 358.45 meters
- 6MWD change from baseline, median ([8]; Pool 2, including the outlier): 3.15 meters
- 6MWD change from baseline, mean ([8]; last available post-baseline value − baseline, Pool 2, including the outlier): 16.40 meters
- parameters with statistically significant decline from baseline at Week 52 [9]: GSGC, FVC sitting, FVC supine, SVC sitting, and CK
- parameters with statistically significant improvement from baseline at Week 52 [9]: not observed for any parameters
